Results: patent US5990083A, “Multicatalytic protease inhibitors” (Cephalon, Inc., priority 1997, dated 1999)

What was measured:
[1] = system: wild-type SOD-1 in transformed 293 cells; experiment: Specificity of MCP activity in SOD-1 turnover, wild-type cell line; assay type: cell-based, human; conditions: 20 μM, 24 hours; FIG. 7
Method: (§1) Res. Comm. (1988) 153: 1201.), a cell penetrating "calpain" inhibitor (calpain is a cysteine protease); and DK-3 (Enzyme Systems Products, Dublin, Calif. CBZ-Phe-Ala-CHN2) inhibits lysosomal protease activity. […] Cell lines expressing the indicated SOD-1 isoforms were incubated for 24 hours with the following protease inhibitors: Compound 14, 20 μM; Calpeptin, 10 μM; DK-3, 5 μM; Compound 16, 20 μM; or with DMSO as a negative control. After the 24 hours of incubation with the inhibitors, SOD-1 levels were measured by densitometric scanning of immunoblots. […] Each data point is the average of results from three experiments.

[2] = system: Ala4→Val mutant SOD-1 in transformed 293 cells; experiment: Specificity of MCP activity in SOD-1 turnover, Ala4→Val cell line; assay type: cell-based, human; conditions: 20 μM, 24 hours; FIG. 7; relative to untreated samples
Method: as §1

[3] = system: Ile113→Thr mutant SOD-1 in human 293 cells; experiment: SOD-1 levels in transiently transfected 293 cells (immunoblot); conditions: 5 μM, 24 hours, FIG. 5
Method: The human kidney cell line designated 293 (human 293 cells or 293 cells)was obtained from the American Type Culture Collection (ATCC), 12301 Parklawn Drive, Rockville, Md., 20852 (ATCC #CRL 1573) and grown in Dulbecco's modified Eagle's medium with 4.6 g/L glucose, 10% heat-inactivated horse serum (Gibco/Life Technologies Inc. Gaithersburg, Md.). The human 293 cells were maintained at 37° C. in an atmosphere of 5% CO2. The 293 cells were transiently transfected using the calcium phosphate method (Chen, C. et al., Biotechniques 6: 632 (1988). The pCMV-113 SOD-1 expression vector was introduced into 293 cells and 24 hours later, the cells were incubated with either compound 34, compound 14, or compound 24, all at a concentration of 5 μM, for a duration of 24 hours. The known MCP and other protease inhibitory compounds were solubilized in dimethyl sulfoxide (DMSO). Other 293 cell cultures were incubated with an equal volume of DMSO or left in medium only as negative controls.
Approximately 48 hours prior to receiving test compounds, 5×10^5 293 cells were seeded in 36 mm dishes and maintained at 37° C. in an atmosphere of 5% CO2. Cells were incubated with MCP inhibitors (compound 34, 14 or 24) or with DMSO as a negative control for a duration of 24 hours. Cell lysates were prepared by lysing the cells in approximately 75 μl of phosphate-buffered saline (PBS) by freeze/thaw cycling. Protein concentrations of the cell lysates were determined using the BCA method (Pierce, Rockford, Ill.) and 2 to 2.5 μg of each sample was electrophoresed on a 4-20% polyacrylamide geol (Novex, San Diego, Calif.) using a Tris/glycine/SDS (25 mM Tris/192 mM glycine/0.1% SDS) buffer system. […] Stained bands corresponding to SOD-1 protein were quantitated using a DocuGel V image analysis system and RFLPscan software (Scanalytics, Billerica, Mass.). Levels of SOD-1 are expressed as units of induction relative to the negative control (i.e., units of experimental divided by units of control).

Compound: CC(C)C[C@@H](C=O)NC(=O)[C@H](CCCNC(=N)N[N+](=O)[O-])NC(=O)C(CCCCCCCCC#N)C1CCCC1 (stereo partly drawn) [Compound 14, 10-cyano-2-cyclopentyldecanoyl-N^g-nitro-L-arginyl-L-leucinal]
- Wild-type SOD-1 accumulation [1]: slight increase
- Increase in the accumulation of SOD-1 protein (Ala4→Val mutant) [2]: three-fold
- SOD-1 levels compared to controls [3]: modestly elevated
